Literature values, collected in US11503831B2, “Arthropoda repellent composition” (SanderStrothmann GmbH, priority 2019, dated 2022).

Settings: in vivo

Share of topically applied dose absorbed by the skin: approximately 50%
Time to peak plasma levels: 1 h
Structure (SMILES): CCN(CC)C(=O)c1cccc(C)c1 [N,N-diethyl toluamide, N,N′-diethyl toluamide]
